Experimental data taken from US9630984B2, “Compound contained in manuka honey and use of same” (HEALTHCARE SYSTEMS, priority 2011, dated 2017).

Biological target: T1, human MPO (Homo sapiens, UniProt P05164)
T1 sequence (P05164 49-745): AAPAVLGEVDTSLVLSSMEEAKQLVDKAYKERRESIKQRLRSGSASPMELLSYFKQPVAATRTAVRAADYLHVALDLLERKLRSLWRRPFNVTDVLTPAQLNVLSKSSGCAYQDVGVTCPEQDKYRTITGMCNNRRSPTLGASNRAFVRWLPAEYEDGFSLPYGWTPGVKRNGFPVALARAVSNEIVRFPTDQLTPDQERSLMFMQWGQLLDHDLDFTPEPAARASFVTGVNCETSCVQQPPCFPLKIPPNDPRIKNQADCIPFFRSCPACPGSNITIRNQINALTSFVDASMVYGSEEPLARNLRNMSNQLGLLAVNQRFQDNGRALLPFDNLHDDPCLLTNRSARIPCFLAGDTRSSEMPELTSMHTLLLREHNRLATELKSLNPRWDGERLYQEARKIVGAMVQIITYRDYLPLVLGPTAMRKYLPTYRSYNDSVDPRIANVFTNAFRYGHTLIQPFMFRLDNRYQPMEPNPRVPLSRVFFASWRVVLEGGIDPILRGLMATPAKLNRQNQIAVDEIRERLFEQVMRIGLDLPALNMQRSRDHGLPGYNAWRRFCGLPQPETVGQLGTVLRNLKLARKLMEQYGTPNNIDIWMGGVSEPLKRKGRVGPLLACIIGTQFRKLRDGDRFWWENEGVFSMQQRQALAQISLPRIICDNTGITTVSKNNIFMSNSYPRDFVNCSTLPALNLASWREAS
Experiment: MPO inhibition activity: inhibition of halogenation of tyrosine residues of biotin-labeled BSA (ELISA with 3A5 antibody)
Type: biochemical
Conditions: sample prepared to 5 mM, 10 μl in about 110 μl reaction; 30 minutes at 37° C.; absorbancy 450 nm/550 nm
Procedure: The MPO inhibition activities of the isolated MGGD and its aglycon MSYR were measured by evaluating inhibition of the halogenation of the tyrosine residues of a biotin-labeled protein (bovine serum albumin). It is thus possible to measure either inhibition of the MPO enzyme itself or the ability to extinguish or capture hypobromous acid (HOBr) and other active species produced by the enzyme.
The necessary solutions and the like for the reaction were prepared as follows.
(2) Xanthine oxidase (XOD) (Sigma X4500-25UN) diluted 100× with water.
(4) Biotin-BSA (Sigma-A6043-10MG) dissolved to 1 mg/ml in 0.1 M phosphate buffer with 200 μM NaBr and 200 mM NaCl added in advance, then freeze dried for storage, and diluted to 0.4 mg/ml before use.
(5) Sample prepared to 5 mM.
(6) Reduced glutathione (GSH) (Sigma G-6529) as a positive control.
(7) L-methionine, dissolved in water to 10 mM. […]
50 μl of a 10 μg/ml concentration 3A5 antibody (Nikken Seil) recognizing dihalogenated tyrosines was coated as a primary antibody on each microplate, and left standing overnight at 4° C. […] This was then left standing again for 45 minutes at 37° C. and washed, after which 100 μl of a TMB (3,3′-5,5′-tetramethylbentidine) coloring reagent (A liquid/B liquid=1/1) was added, and absorbancy was measured at 450 nm/550 nm for about 10 minutes with a microplate reader.

- MPO enzyme inhibition activity (halogenated tyrosine production vs control with no added antioxidant): exhibited MPO enzyme inhibition activity
Compound: COC(=O)c1cc(OC)c(O[C@@H]2O[C@H](CO[C@@H]3O[C@H](CO)[C@@H](O)[C@H](O)[C@H]3O)[C@@H](O)[C@H](O)[C@H]2O)c(OC)c1 [MGGD, methyl-4-O-[β-D-glucopyranosyl-(1→6)-β-D-glucopyranosyl]-3,5-dimethoxybenzoate]
